Data taken from patent publication US20030113352A1, “Neutralization of stratum corneum to treat hyperkeratotic skin lesions” (The Regents of the University of California, priority 2001, published 2003).
Blank lines part the entries; values can stand above or below the compound they belong to.

What was measured:
hairless mice [1] = test: Stratum corneum integrity: TEWL after sequential tape strippings; format: in vivo, hairless mice (Skh1/Hr)
Description: After 15 minutes, barrier function was determined by measurement of transepidermal water loss(TEWL) with an electrolytic water analyzer (MEECO®, Warrington, Pa.). […] Individually tested sites were covered with Hilltop Chambers (HtC, nominal volume 200 mL), which were reapplied following each indvidual measurement.
(§2) The stratum corneum was removed by several strippings with adhesive tape (Tesatape, Beiersdorf, Germany) inducing an increase in TEWL levels above baseline (from 2-5 to approximately 10-15 g/m^2/h). Two sites were prepared on each animal, and TEWL and surface pH were measured at 0, 2, 5 and 24 hrs following the stripping and the applications of inhibitors.

murine skin [2] = test: Desmosome density and desmoglein-1 staining in lower stratum corneum; format: in vivo, mouse; conditions: for density of desmosomes in the lower stratum corneum and at the stratum corneum-stratum granulosum interface: inhibitor-treated vs vehicle sites
From the text: (§1) Ultrastructural methods: Freshly obtained biopsies from mouse skin were fixed directly in modified Karnovsky's fixative, postfixed with reduced osmium tetroxide (OSO4) and then imbedded in an Epon-epoxy mixture. For visualization of lipid-enriched, lamellar bilayer structures, some samples were post fixed in ruthenium tetroxide (RuO4). Sections were cut on a Reichert Ultracut E microtome, counterstained with uranyl acetate and lead citrate, and viewed in a Zeiss 10 CR electron microscope, operated at 60 kV.
Immunofluorescence Staining: Hairless mouse skin was excised with a 6 mm punch biopsy, and the subcutaneous fat was removed. Tissue sections were incubated for 1 hour in blocking buffer (1% bovine serum albumin, 0.1% cold water fish gelatin in phosphate buffered saline (PBS)), and were then incubated for 1 hour further at room temperature with 1:500 dilution of polyclonal rabbit anti-mouse desmoglein 1 antibody (gift of Dr. John Stanley, University of Pennsylvania) diluted in blocking buffer. The tissue was then washed with blocking buffer and incubated one hour at room temperature with fluoroscein, isothiocyanate-conjugated, goat anti-rabbit IgG antibody (DAKO, Carpinteria, Calif., USA), diluted in blocking buffer. Either preincubation of DSG 1 antibody with DSG 1-recombinant protein (gift of Dr. Masayuki Amagai, Keio University, Tokyo, Japan), or omission of the DSG 1 primary antibody eliminated specific staining.

hairless mice [3] = test: Permeability barrier function by transepidermal water loss (TEWL); format: in vivo, hairless mice (Skh1/Hr)
Description: (§3) The mice were anesthetized with chloral hydrate (Morton Grove Pharmaceuticals, Morton Grove, Ill., USA). After 3 hours immersion at 37° C., the mice were removed, and the remaining buffer was gently blotted off. After 15 minutes, barrier function was determined by measurement of transepidermal water loss(TEWL) with an electrolytic water analyzer (MEECO®, Warrington, Pa.). Surface pH was measured with a flat, glass surface electrode from Mettler-Toledo (Giessen, Germany), attached to a pH meter (Skin pH Meter PH 900, Courage& Khazaka, Cologne, Germany). Individually tested sites were covered with Hilltop Chambers (HtC, nominal volume 200 mL), which were reapplied following each indvidual measurement.

hairless mice [4] = test: Stratum corneum cohesion: protein removed per D-Squame stripping; format: in vivo, hairless mice (Skh1/Hr)
Description: Before stripping the stratum corneum, the skin surface was cleaned with a single ethanol wipe. D-Squame tapes then were placed sequentially to the test areas for about 3 sec each, removed with forceps, and stored in glass scintillation vials at 5° C.
The amount of protein removed per D-Squame was measured, by a modification of the method of Dreher, F., et al., Acta Derm. […] The protein content per stripping was determined with the Bio-Rad protein assay kit. […] Each tape was incubated with 1 M NaOH for 1 hour at 37° C. in an incubator shaker at 80 rpm, and neutralized thereafter with 1 mL of 1 M HCl in the scintillation vials. Subsequently, 0.2 mL of this solution was incubated in 0.6 ml distilled water plus 0.2 mL of the Bio-Rad protein dye for 5 minutes in borosililate tubes. […] An empty D-Squame tape, as well as distilled water incubated with Bio-Rad dye, served as negative controls. The amount of calculated protein was then normalized to skin surface area (μg/cm^2).

murine skin [5] = conditions: 4 mg/mL topical, shown previously; cited from earlier work
hairless mice [6] = test: Skin surface pH after topical treatment or buffer exposure; format: in vivo, hairless mice (Skh1/Hr)
Description: as §3

mouse skin = test: Electron microscopy of lamellar bodies and extracellular lipid processing; format: in vivo
From the text: as §1

hairless mice [7] = test: Barrier recovery (TEWL) after tape-stripping; conditions: for barrier recovery after tape-stripping: NHE1 inhibitors, general statement
Description: Permeability Barrier Studies: Normal hairless mice were treated topically twice a daily for three days with BPB (4 mg/mL) or MJ33 (4 mg/mL) both in propylene glycol:ethanol (7:3 v/v) vehicle, or the vehicle alone on an area of 5-6 cm on the backs and flanks as described previously (Mao-Qiang, M., et al., J. Lipid Res. 36:1926-35 (1995)). […] The acidification experiments were performed with 10 mM HEPES-buffer, adjusted to either pH 5.5 or pH 7.4 as follows: One flank of anesthetized mice was immersed on a mesh netting, as described previously (Lee, S. H., et al., J. Clin. Invest. 89:530-8 (1992)). The mice were anesthetized with chloral hydrate (Morton Grove Pharmaceuticals, Morton Grove, Ill., USA). After 3 hours immersion at 37° C., the mice were removed, and the remaining buffer was gently blotted off. After 15 minutes, barrier function was determined by measurement of transepidermal water loss(TEWL) with an electrolytic water analyzer (MEECO®, Warrington, Pa.). […] Individually tested sites were covered with Hilltop Chambers (HtC, nominal volume 200 mL), which were reapplied following each indvidual measurement.
as §2
Hairless mice were tape stripped to TEWL of 7-9 g/m^2/h. […] Control areas were covered with Hilltop Chambers containing 10 mM HEPES buffer adjusted to pH 7.4 or pH 5.5 as appropriate. TEWL was measured at 0, 2, 5, and 24 hours post tape-strip. The results are reported as percent barrier recovery from the initial induced defect.

murine skin [8] = test: Stratum corneum pH after tape-stripping with buffers and NHE1 inhibitors; format: in vivo, mouse
Description: The acidification experiments were performed with 10 mM HEPES-buffer, adjusted to either pH 5.5 or pH 7.4 as follows: One flank of anesthetized mice was immersed on a mesh netting, as described previously (Lee, S. H., et al., J. Clin. Invest. 89:530-8 (1992)). […] After 3 hours immersion at 37° C., the mice were removed, and the remaining buffer was gently blotted off. After 15 minutes, barrier function was determined by measurement of transepidermal water loss(TEWL) with an electrolytic water analyzer (MEECO®, Warrington, Pa.). Surface pH was measured with a flat, glass surface electrode from Mettler-Toledo (Giessen, Germany), attached to a pH meter (Skin pH Meter PH 900, Courage& Khazaka, Cologne, Germany). Individually tested sites were covered with Hilltop Chambers (HtC, nominal volume 200 mL), which were reapplied following each indvidual measurement.
as §2

NHE1 antiporter = biological target: T1, NHE1 antiporter (Homo sapiens, UniProt P19634); test: Intracellular pH (BCECF) and recovery from acid load in cultured human keratinocytes; format: cell-based
T1 construct: endogenous in cells; host or cells: cultured human keratinocytes (CHK)
Description: Assessment of Intracellular pH: Keratinocytes were plated on glass coverslips and grown in Cascade 154 medium containing 0.07 mM Ca^2+. The coverslips were incubated in 145 μM BCECF-AM ester at room temperature for 5 minutes, then rinsed for 30 minutes in buffer containing either 28 mM HEPES, 136 mM NaCl, 5 mM KCl, 0.07 mM CaCl2 and 10 mM glucose, pH 7.4 or Ringer solution (136 mM NaCl, 5 mM KCl, 0.03 mM Ca2+, 28 mM TES, 14 mM Na HCO3, NaOH to adjust the pH to 7.4, and 10 mM glucose (pH 7.4, 330 mOsm)). BCECF-AM-ester is membrane permeable; once inside cells it is de esterified by endogenous […], trapping flourescently-active, acidic BCECF inside the cells. The BCECF-loaded cells were placed in a superfusion chamber mounted on a inverted microscope (Nikon). The keratinocytes were superfused with one of the two solutions, and baseline intracellular pH was monitored constantly using a ratiometric method (Paradiio et al (1987) Am J. Physiol. 253:C30-6). […] The resultant fluorescence (at 530 nm) from each stimulating wavelength was measured with a CCD camera (Hamamatsu) digitally ratioed, and stored using a software program (Fluor, Universal Imaging Co., West Chester, Pa.). Whereas fluorescence emission at 440 nm excitation remains constant, indicative of dye concentration, emission from 490 nm varies proportionally with changes of intracellular pH. […]

[9] = five hours post tape-strip, in pH 7.4 buffer, buffer alone 38%
[10] = two hours post tape-strip, in pH 7.4 buffer, buffer alone 21%
[11] = fatty acid co-applied with BPB, three days
[12] = fifth strip, fatty acid co-applied with BPB

T1 sequence (P19634 whole entry): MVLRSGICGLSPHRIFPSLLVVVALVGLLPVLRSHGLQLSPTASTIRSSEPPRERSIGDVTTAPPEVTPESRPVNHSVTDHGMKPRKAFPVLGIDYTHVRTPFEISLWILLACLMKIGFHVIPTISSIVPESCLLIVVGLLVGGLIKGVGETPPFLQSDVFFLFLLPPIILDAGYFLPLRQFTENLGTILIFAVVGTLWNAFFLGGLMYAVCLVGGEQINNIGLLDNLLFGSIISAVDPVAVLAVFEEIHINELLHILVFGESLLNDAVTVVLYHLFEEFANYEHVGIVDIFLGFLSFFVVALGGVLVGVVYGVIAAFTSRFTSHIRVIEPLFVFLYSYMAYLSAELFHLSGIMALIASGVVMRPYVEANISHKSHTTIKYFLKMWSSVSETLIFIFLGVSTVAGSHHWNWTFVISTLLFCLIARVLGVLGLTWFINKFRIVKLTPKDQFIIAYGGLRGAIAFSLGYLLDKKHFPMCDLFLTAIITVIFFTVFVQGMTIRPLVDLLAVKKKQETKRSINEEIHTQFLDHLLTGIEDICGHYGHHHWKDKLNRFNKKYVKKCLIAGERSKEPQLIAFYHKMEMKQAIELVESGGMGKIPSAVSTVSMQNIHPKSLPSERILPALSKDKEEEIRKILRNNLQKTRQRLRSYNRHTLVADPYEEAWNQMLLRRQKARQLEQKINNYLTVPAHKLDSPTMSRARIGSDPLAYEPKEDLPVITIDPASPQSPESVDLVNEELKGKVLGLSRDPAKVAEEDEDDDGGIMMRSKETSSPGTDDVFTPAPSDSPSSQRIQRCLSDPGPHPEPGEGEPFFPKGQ

Compound: O=C(CBr)c1ccc(Br)cc1 [BPB, bromphenacyl bromide]
TEWL after tape strippings (hairless mice [1]; BPB treated sites then acidic buffer, three sequential strippings): less than 30 g/m^2/h
TEWL after tape strippings (hairless mice [1]; BPB treated sites then neutral buffer, three sequential strippings): more than 60 g/m^2/h
TEWL after tape strips (hairless mice [1]; fifth strip, BPB alone (Example 5)): 80-100 g/m^2/ h
TEWL after tape stripping (hairless mice [1]; fifth strip, after three days of treatment (Example 1)): ~90 g/m^2/h
TEWL after tape stripping (hairless mice [1]; second strip, after three days of treatment): ~20 g/m^2/h
density of desmosomes in the lower stratum corneum and at the stratum corneum-stratum granulosum interface (murine skin [2]): dramatic reduction
density of DSG1 positive clusters (murine skin [2]; laser confocal microscopy, lower stratum corneum): decline dramatically
TEWL before buffer exposure (hairless mice [3]; BPB three days, before neutral buffer): about 10 g/m^2/h
barrier function (hairless mice [3]; BPB three days, then acidic buffer three hours): remained unchanged
TEWL (hairless mice [3]; BPB three days, then neutral buffer three hours): about 18 g/m^2/h
TEWL (hairless mice [3]; day three of treatment): ~11 g/m^2/h
TEWL (hairless mice [3]; day two of treatment): ~6 g/m^2/h
protein removed (hairless mice [4]; after five strips (Example 1)): 85-90 μg/cm^2
protein removed per D-Squame stripping (hairless mice [4]; first strip, after three days of treatment): about 20 μg/cm^2
protein lost (hairless mice [4]; five sequential tape-strippings, BPB alone (Example 5)): about 125 μg protein/cm^2
toxicity of the doses employed (murine skin [5]): non-toxic
pH of the stratum corneum (hairless mice [6]; BPB alone, comparison with LA co-application): 6.28+/−0.1
pH of the stratum corneum (hairless mice [6]; BPB alone, comparison with PA co-application): 5.92+/−0.05
pH of the stratum corneum (hairless mice [6]; BPB alone, comparison with SA co-application): 6.17+/−0.08
surface pH of BPB treated sites before buffer exposure (hairless mice [6]; BPB three days, before buffer): ~5.95 pH
surface pH (hairless mice [6]; BPB three days, then neutral buffer (pH 7.4) three hours): ~6.41 pH
pH of the skin (hairless mice [6]; after one day, 4 mg/mL topical twice daily): ~6.0 pH
average pH of treated sites (hairless mice [6]; day 3, 4 mg/mL topical twice daily): ~6.4 pH

intracellular pH (NHE1 antiporter; 1.5 μM for 16 hours, from pH 7.05): 6.90 pH
Compound: CS(=O)(=O)c1cc(C(=O)NC(=N)N)ccc1N1CCCCC1 [HOE694, 3-methylsulfonyl-4-piperidino-benzoylguanidinemethanesulfonate]
lamellar body formation and extracellular processing of secreted lipids (mouse skin; in pH 5.5 buffer): appeared normal
extracellular processing of secreted lipids (mouse skin; in pH 7.4 buffer): defective
lamellar body formation and secretion (mouse skin; in pH 7.4 buffer): undisturbed
percent barrier recovery (TEWL rate less than initial induced rate) (hairless mice [7]; 2 hours post tape-strip, in pH 5.5 buffer, buffer alone 28%): 25%
percent barrier recovery (TEWL rate less than initial induced rate) (hairless mice [7]; 5 hours post tape-strip, in pH 5.5 buffer): 38%
percent barrier recovery (TEWL rate less than initial induced rate) (hairless mice [7]; 24 hours post tape-strip, in pH 5.5 buffer): 75%
percent barrier recovery (TEWL rate less than initial induced rate) (hairless mice [7]; 24 hours post tape-strip, in pH 7.4 buffer, buffer alone 75%): about 45%
barrier recovery after tape-stripping (hairless mice [7]): delayed barrier recovery
percent barrier recovery (TEWL rate less than initial induced rate) (hairless mice [7]; [9]): 23%
percent barrier recovery (TEWL rate less than initial induced rate) (hairless mice [7]; [10]): about 12%
stratum corneum pH relative to initial post-tape-strip value (murine skin [8]; 2 hours post-tape-strip, pH 5.5 HEPES buffer): more than 0.1 pH units
stratum corneum pH relative to initial post-tape-strip value (murine skin [8]; 5 hours post-tape-strip, pH 5.5 HEPES buffer): more than 0.05 pH units
stratum corneum pH relative to initial post-tape-strip value (murine skin [8]; five hours post-tape-strip, pH 7.4 buffer): persisted and even increased
initial post-tape-strip pH value (murine skin [8]; in pH 5.5 buffer, vs pH 5.5 buffer alone): increased significantly
stratum corneum pH above that of skin exposed to pH 7.4 buffer alone (murine skin [8]; two hours post-tape-strip, in pH 7.4 buffer): ~0.05 pH units
stratum corneum pH increase over initial post-tape-strip value (murine skin [8]; two hours post-tape-strip, pH 7.4 buffer): > 0.1 pH units

Compound: CCCCCCCCCCCCCCCCOCC(COCC(F)(F)F)OP(=O)(O)OC (centres unmarked) [MJ33, 1-Hexadecyl-3-triflouroethylglycero-sn-2-phosphomethanol]
TEWL after tape strippings (hairless mice [1]; day 3, after three consecutive tape strippings (Example 1)): ~75 g/m^2/hr
TEWL after tape strips (hairless mice [1]; three sequential tape-strippings, MJ33 alone (Example 5)): ~75 g/m^2/h
density of desmosomes in the lower stratum corneum and at the stratum corneum-stratum granulosum interface (murine skin [2]): dramatic reduction
fold increase in TEWL rates (hairless mice [3]; by day three, vs vehicle): 2-3 fold
TEWL rates (hairless mice [3]; day three, repeated applications, vehicle 2.97): 5.19+/−.81
protein lost (hairless mice [4]; day 3, after three consecutive tape-strippings (Example 1)): over 50 μg protein/cm^2
protein lost (hairless mice [4]; three sequential strippings, MJ33 alone (Example 5)): about 50 μg protein/cm^2
toxicity of the doses employed (murine skin [5]): non-toxic
stratum corneum surface pH (hairless mice [6]; MJ33 4 mg/mL vs vehicle alone (5.60)): 5.87+/−0.06

Compound: N=C(N)NC(=O)c1nc(Cl)c(N)nc1N [amiloride, N-Amido-3,5-diamino-6-chloropyrazinecarboxamide]
barrier recovery after tape-stripping (hairless mice [7]): delayed barrier recovery
percent barrier recovery (TEWL rate less than initial induced rate) (hairless mice [7]; [9]): about 25%
percent barrier recovery (TEWL rate less than initial induced rate) (hairless mice [7]; [10]): about 12%
effect after wash out period (NHE1 antiporter; FIG. 1 (D), recovery from acid load after wash out): non-permanent, non-toxic effect

Compound: CCCCC/C=C\C/C=C\CCCCCCCC(=O)O [linoleic acid]
pH of the stratum corneum (hairless mice [6]; [11]): 5.77+/−0.10

Compound: CCCCCCCCCCCCCCCC(=O)O [palmitic acid]
TEWL after tape strips (hairless mice [1]; [12]): 55-60 g/m^2/h
TEWL after tape strips (hairless mice [1]; three sequential tape-strippings, fatty acid co-applied with MJ33): 30-35 g/m^2/h
protein lost (hairless mice [4]; [12]): about 40 μg protein/cm^2
protein lost (hairless mice [4]; three strippings, fatty acid co-applied with MJ33): about 30 μg/cm^2
pH of the stratum corneum (hairless mice [6]; [11]): 5.40+/−0.14

Compound: CCCCCCCCCCCCCCCCCC(=O)O [stearic acid]
TEWL after tape strips (hairless mice [1]; [12]): about 25 g/m^2/h
protein lost (hairless mice [4]; [12]): about 25 μg protein/cm^2
pH of the stratum corneum (hairless mice [6]; [11]): 5.73+/−0.09
